SMILES strings stand for the structures. Read-outs that look alike come from different tables or passages of the source.

What all share (assay): Glasshouse assay for herbicidal activity (pre- and post-emergence), percentage phytotoxicity
Common to all, as to format: in vivo

In one assay the test system is Lolium perenne (LOLPE). Particulars: Lolium perenne, rate 250 g/ha. Summed up:
(§1)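 Visual phytotoxicity score, 0% = undamaged to 100% = total kill, read 20 days after treatment for PRE and 15 days for POST. Pots of standard soil; treatment at day 1 (PRE) or roughly day 12 (POST). Glasshouse: 16 h photoperiod, 65% RH, 24/18 or 20/16 °C by climate type.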

Assay [1] relates to Echinochloa crus-galli (ECHCG). As to conditions: Echinochloa crus-galli, rate 250 g/ha. Summed up:
as §1

The subject of assay [2] is Alopecurus myosuroides (ALOMY). As to conditions: Alopecurus myosuroides, rate 250 g/ha. In outline: as §1
For a further assay, the system named is Avena fatua (AVEFA). Particulars: Avena fatua, rate 250 g/ha. Summed up: as §1
Where [3] appears, read: post-emergence, 360 h, POST-emergence, visual score 15 DAA (100%=total damage, 0%=no damage), read-out: Post-emergence herbicidal activity (percentage phytotoxicity) LOLPE POST.
[4] abbreviates: pre-emergence, 480 h, PRE-emergence, visual score 20 DAA (100%=total damage, 0%=no damage), read-out: Pre-emergence herbicidal activity (percentage phytotoxicity) LOLPE PRE.
The mark [5] stands for this setting: post-emergence, 360 h, POST-emergence, visual score 15 DAA (100%=total damage, 0%=no damage), read-out: Post-emergence herbicidal activity (percentage phytotoxicity) ECHCG POST.
[6] abbreviates: pre-emergence, 480 h, PRE-emergence, visual score 20 DAA (100%=total damage, 0%=no damage), read-out: Pre-emergence herbicidal activity (percentage phytotoxicity) ECHCG PRE.
The mark [7] stands for this setting: post-emergence, 360 h, POST-emergence, visual score 15 DAA (100%=total damage, 0%=no damage), read-out: Post-emergence herbicidal activity (percentage phytotoxicity) ALOMY POST.
[8] abbreviates: pre-emergence, 480 h, PRE-emergence, visual score 20 DAA (100%=total damage, 0%=no damage), read-out: Pre-emergence herbicidal activity (percentage phytotoxicity) ALOMY PRE.
Setting [9] is: post-emergence, 360 h, POST-emergence, visual score 15 DAA (100%=total damage, 0%=no damage), read-out: Post-emergence herbicidal activity (percentage phytotoxicity) AVEFA POST.
Where [10] appears, read: pre-emergence, 480 h, PRE-emergence, visual score 20 DAA (100%=total damage, 0%=no damage), read-out: Pre-emergence herbicidal activity (percentage phytotoxicity) AVEFA PRE.

`CCc1cc(C)cc(C)c1C1C(=O)CC(CC(=O)NCC2CC2)C1=O` (stereo not shown) [Compound B257]: the pest or weed control at 250 g/ha (in the assay on Lolium perenne (LOLPE) (setting [3]); with Lolium perenne (LOLPE) (setting [4]); in assay [1] (setting [5]); in assay [1] (setting [6]); in assay [2] (setting [7]); in assay [2] (setting [8])) was 100% each time. Also, the figures for the pest or weed control at 250 g/ha in the assay on Avena fatua (AVEFA) (setting [9]) and with Avena fatua (AVEFA) (setting [10]) were 100% and 90%, respectively.

Consider `CCc1cc(C)cc(C)c1C1C(=O)CC(CC(=O)N(C)CC)C1=O` (stereo not shown) [Compound B258], for which the pest or weed control at 250 g/ha (in the assay with Lolium perenne (LOLPE) (setting [3]); in the assay on Lolium perenne (LOLPE) (setting [4]); in assay [1] (setting [5]); in assay [1] (setting [6]); in assay [2] (setting [7]); in assay [2] (setting [8])) was 100% each time. Also, the pest or weed control at 250 g/ha worked out at 100% in the assay with Avena fatua (AVEFA) (setting [9]) and 90% in the assay with Avena fatua (AVEFA) (setting [10]).

For the compound `CCc1cc(C)cc(C)c1C1C(=O)CC(CC(=O)N(C)C(C)(C)C)C1=O` (stereo not shown) [Compound B259], the pest or weed control at 250 g/ha (in the assay on Lolium perenne (LOLPE) (setting [3]); in the assay with Lolium perenne (LOLPE) (setting [4]); in assay [1] (setting [5]); in assay [1] (setting [6]); in assay [2] (setting [7]); in assay [2] (setting [8])) was 100% in each case. The pest or weed control at 250 g/ha with Avena fatua (AVEFA) (setting [9]) is 100%; in the assay on Avena fatua (AVEFA) (setting [10]), 90%.

Consider `C#CCN(C)C(=O)CC1CC(=O)C(c2c(C)cc(C)cc2CC)C1=O` (stereo not shown) [Compound B260], for which the pest or weed control at 250 g/ha in the assay on Lolium perenne (LOLPE) (setting [3]) came out at 100%; in the assay on Lolium perenne (LOLPE) (setting [4]), 100%; in assay [1] (setting [5]) it was 100%; in assay [1] (setting [6]), 100%; in assay [2] (setting [7]), 100%; in assay [2] (setting [8]), 90%. Moreover, the pest or weed control at 250 g/ha in the assay on Avena fatua (AVEFA) (setting [9]) was determined as 100%; with Avena fatua (AVEFA) (setting [10]), 80%.

Regarding `CCc1cc(OCC(F)(F)F)cc(C)c1C1C(=O)CC(CC(=O)NCc2cccc(Cl)c2)C1=O` (stereo not shown) [Compound B261], the pest or weed control at 250 g/ha turned out to be 100% in the assay with Lolium perenne (LOLPE) (setting [3]); 90% in the assay with Lolium perenne (LOLPE) (setting [4]); 100% in assay [1] (setting [5]); 90% in assay [1] (setting [6]); 100% in assay [2] (setting [7]); 80% in assay [2] (setting [8]). Further, the pest or weed control at 250 g/ha in the assay with Avena fatua (AVEFA) (setting [9]) stood at 100%; in the assay with Avena fatua (AVEFA) (setting [10]), 80%.

Turning to `Cc1cc(-n2cc(Cl)cn2)cc(C)c1C1C(=O)CC(CC(=O)NCc2cccc(Cl)c2)C1=O` (stereo not shown) [Compound B262], the pest or weed control at 250 g/ha in the assay with Lolium perenne (LOLPE) (setting [3]) was 70%; in the assay on Lolium perenne (LOLPE) (setting [4]), 60%; in assay [1] (setting [5]), 100%; in assay [1] (setting [6]), 80%; in assay [2] (setting [7]), 70%; in assay [2] (setting [8]), 60%. Further, the pest or weed control at 250 g/ha in the assay with Avena fatua (AVEFA) (setting [9]) amounted to 90%; in the assay with Avena fatua (AVEFA) (setting [10]), 40%.

As to `Cc1cc(-c2ncc(F)cn2)cc(C)c1C1C(=O)CC(CC(=O)NCc2ccccc2)C1=O` (stereo not shown) [Compound B263], the pest or weed control at 250 g/ha came to 100% in the assay on Lolium perenne (LOLPE) (setting [3]); 80% in the assay on Lolium perenne (LOLPE) (setting [4]); 100% in assay [1] (setting [5]); 100% in assay [1] (setting [6]); 100% in assay [2] (setting [7]); 90% in assay [2] (setting [8]). In addition, the pest or weed control at 250 g/ha in the assay with Avena fatua (AVEFA) (setting [9]) amounted to 100%; with Avena fatua (AVEFA) (setting [10]), 80%.

For `Cc1cc(-c2ncc(F)cn2)cc(C)c1C1C(=O)CC(CC(=O)NCc2cccc(F)c2)C1=O` (stereo not shown) [Compound B264], the pest or weed control at 250 g/ha was 100% in the assay with Lolium perenne (LOLPE) (setting [3]); 90% in the assay on Lolium perenne (LOLPE) (setting [4]); 100% in assay [1] (setting [5]); 100% in assay [1] (setting [6]); 100% in assay [2] (setting [7]); 100% in assay [2] (setting [8]). Also, the pest or weed control at 250 g/ha stood at 100% in the assay on Avena fatua (AVEFA) (setting [9]) and 80% in the assay with Avena fatua (AVEFA) (setting [10]).

In the case of `Cc1cc(-c2ncc(F)cc2F)cc(C)c1C1C(=O)CC(CC(=O)N(C)C)C1=O` (stereo not shown) [Compound B265], the pest or weed control at 250 g/ha (in the assay with Lolium perenne (LOLPE) (setting [3]); with Lolium perenne (LOLPE) (setting [4]); in assay [1] (setting [5]); in assay [1] (setting [6]); in assay [2] (setting [7]); in assay [2] (setting [8])) was 100% each time. In addition, the pest or weed control at 250 g/ha in the assay with Avena fatua (AVEFA) (setting [9]) and in the assay with Avena fatua (AVEFA) (setting [10]) was 100% throughout.

For `COCCN(CCOC)C(=O)CC1CC(=O)C(c2c(C)cc(-c3ncc(F)cc3F)cc2C)C1=O` (stereo not shown) [Compound B266], the pest or weed control at 250 g/ha turned out to be 80% in the assay on Lolium perenne (LOLPE) (setting [3]); 90% with Lolium perenne (LOLPE) (setting [4]); 100% in assay [1] (setting [5]); 100% in assay [1] (setting [6]); 100% in assay [2] (setting [7]); 100% in assay [2] (setting [8]). Moreover, the pest or weed control at 250 g/ha in the assay with Avena fatua (AVEFA) (setting [9]) was 100%; in the assay on Avena fatua (AVEFA) (setting [10]) it was 40%.

As for `Cc1cc(-c2ncc(F)cc2F)cc(C)c1C1C(=O)CC(CC(=O)N(C)C(C)(C)C)C1=O` (stereo not shown) [Compound B267], the pest or weed control at 250 g/ha (in the assay with Lolium perenne (LOLPE) (setting [3]); with Lolium perenne (LOLPE) (setting [4]); in assay [1] (setting [5]); in assay [1] (setting [6]); in assay [2] (setting [7]); in assay [2] (setting [8])) was 100% in each case. Moreover, the values for the pest or weed control at 250 g/ha with Avena fatua (AVEFA) (setting [9]) and with Avena fatua (AVEFA) (setting [10]) were 100% and 80%, respectively.

Regarding `Cc1cc(-c2ncc(Br)cn2)cc(C)c1C1C(=O)CC(CC(=O)NC(C)(C)C)C1=O` (stereo not shown) [Compound B268], the pest or weed control at 250 g/ha came to 100% in the assay on Lolium perenne (LOLPE) (setting [3]); 100% in the assay with Lolium perenne (LOLPE) (setting [4]); 100% in assay [1] (setting [5]); 100% in assay [1] (setting [6]); 90% in assay [2] (setting [7]); 100% in assay [2] (setting [8]). Also, the pest or weed control at 250 g/ha was 100% in the assay with Avena fatua (AVEFA) (setting [9]) and 90% with Avena fatua (AVEFA) (setting [10]).

Regarding `CNC(=O)CC1CC(=O)C(c2c(C)cc(-c3ncc(F)cc3F)cc2C)C1=O` (stereo not shown) [Compound B269], the pest or weed control at 250 g/ha (in the assay on Lolium perenne (LOLPE) (setting [3]); in the assay on Lolium perenne (LOLPE) (setting [4]); in assay [1] (setting [5]); in assay [1] (setting [6]); in assay [2] (setting [7]); in assay [2] (setting [8])) was 100% throughout. Further, the pest or weed control at 250 g/ha with Avena fatua (AVEFA) (setting [9]) and in the assay on Avena fatua (AVEFA) (setting [10]) was 100% in each case.

Regarding `Cc1cc(-c2ncc(C#N)cn2)cc(C)c1C1C(=O)CC(CC(=O)NC(C)(C)C)C1=O` (stereo not shown) [Compound B270], the pest or weed control at 250 g/ha turned out to be 90% in the assay on Lolium perenne (LOLPE) (setting [3]); 100% in the assay with Lolium perenne (LOLPE) (setting [4]); 100% in assay [1] (setting [5]); 100% in assay [1] (setting [6]); 100% in assay [2] (setting [7]); 100% in assay [2] (setting [8]). Besides, the pest or weed control at 250 g/ha stood at 100% with Avena fatua (AVEFA) (setting [9]) and 90% with Avena fatua (AVEFA) (setting [10]).

With `COc1ccc(CNC(=O)CC2CC(=O)C(c3c(C)cc(-c4ncc(F)cn4)cc3C)C2=O)cc1` (stereo not shown) [Compound B271], the pest or weed control at 250 g/ha was 90% with Lolium perenne (LOLPE) (setting [3]); 80% in the assay with Lolium perenne (LOLPE) (setting [4]); 100% in assay [1] (setting [5]); 100% in assay [1] (setting [6]); 100% in assay [2] (setting [7]); 80% in assay [2] (setting [8]). For the same compound, the pest or weed control at 250 g/ha in the assay on Avena fatua (AVEFA) (setting [9]) amounted to 100%; in the assay with Avena fatua (AVEFA) (setting [10]), 80%.

In the case of `Cc1cc(-c2ncc(F)cn2)cc(C)c1C1C(=O)CC(CC(=O)NCc2ccc(C#N)cc2)C1=O` (stereo not shown) [Compound B272], the pest or weed control at 250 g/ha with Lolium perenne (LOLPE) (setting [3]) amounted to 80%; in the assay on Lolium perenne (LOLPE) (setting [4]), 50%; in assay [1] (setting [5]), 100%; in assay [1] (setting [6]) it was 90%; in assay [2] (setting [7]), 100%; in assay [2] (setting [8]) it was 80%. Further, the pest or weed control at 250 g/ha with Avena fatua (AVEFA) (setting [9]) came out at 100%; in the assay with Avena fatua (AVEFA) (setting [10]) it was 80%.

As to `Cc1cc(-c2ncc(F)cn2)cc(C)c1C1C(=O)CC(CC(=O)N(C)Cc2cccc(F)c2)C1=O` (stereo not shown) [Compound B273], the pest or weed control at 250 g/ha in the assay on Lolium perenne (LOLPE) (setting [3]) was found to be 100%; in the assay with Lolium perenne (LOLPE) (setting [4]) it was 100%; in assay [1] (setting [5]), 100%; in assay [1] (setting [6]), 100%; in assay [2] (setting [7]), 100%; in assay [2] (setting [8]), 90%. Further, the pest or weed control at 250 g/ha in the assay on Avena fatua (AVEFA) (setting [9]) stood at 100%; in the assay with Avena fatua (AVEFA) (setting [10]), 90%.
